Data: patent publication US20250360108A1, “CATALYTIC INHIBITOR OF PROTEIN PHOSPHATASE 5 ACTIVATES THE EXTRINSIC APOPTOTIC PATHWAY BY DISRUPTING COMPLEX II” (The Research Foundation for the State University of New York, priority 2022, published 2025)
Each block holds one compound with its values, some of them ahead of it. Residues, ends and D or L forms follow the SMILES beside them. *: point of attachment. Cbz = O=C(OCc1ccccc1)*; CH2F = FC*

Columns and labels:
786-O cells = test: Induction of apoptosis by immunoblotting of apoptotic markers; assay type: cell-based, human
Description: Method Details Cell Transfection and Treatment: Cultured cells were split and then transfected the following day when about 40% confluent with each construct using Mirus TranslT-2020 (MirusBio) according to manufacturer's protocol. Cells were incubated at 37° C. and then extracted or collected for analysis after 24 hrs (HEK293) or 72 hrs (ccRCC cell lines). Short interfering RNA (siRNA) scramble control and PPP5C (PP5) targeting duplexes were purchased from OriGene (SKU: SR321403A, SR321403B, and SR321403C). Indicated cells were transiently transfected with the siRNA using Mirus TranslT-2020. For PP5 knock-down, either 30 nM of control siRNA or 10 nM of each PP5 siRNA duplex (A, B and C) were mixed prior to transfection. Cells were incubated at 37° C. for 72 hrs, then harvested for protein extraction. […] Cells were then harvested for protein extraction.
(§1) Protein Extraction, Immunoprecipitation and Immunoblotting: Protein extraction from mammalian cells was carried out using methods previously described. Cell lysates were quantified using 1× Bradford reagent (Biorad). For immunoprecipitation, cell lysates were incubated with anti-FLAG antibody conjugated beads (Sigma) or anti-HA conjugated beads (ThermoFisher Scientific) at 4° C. for 2 hrs. Endogenous IPs were achieved by incubating lysate with anti-PP5 antibody (Cell Signaling), anti-FADD antibody (Cell Signaling), or anti-RIPK1 antibody (Cell Signaling) overnight followed by protein G agarose (Invitrogen) at 4° C. for 2 hrs. Immunopellets were washed 4 times with fresh lysis buffer (20 mM Tris-HCl (pH 7.4), 100 mM NaCl, 1 mM MgCl2, 0.1% NP40, protease inhibitor cocktail (Roche), and PhosSTOP (Roche)) and eluted in 5× Laemmli buffer. Precipitated proteins were separated by SDS-PAGE and transferred to nitrocellulose membranes. Co-immunoprecipitated proteins or proteins from cell lysate were detected with antibodies recognizing FLAG, 6×-His (ThermoFisher Scientific), GAPDH (ENZO Life Sciences), Cdc37 (StressMarq), GR, phospho-GR (S211), PP5, caspase-3, cleaved caspase-3, caspase-8, cleaved caspase-8, cleaved caspase-7, cleaved-PARP, phospho-RIPK1 (S166), phospho-FADD (S194), PP2A-C, VHL (Cell Signaling), phospho-RIPK1 (S161) (Invitrogen), PP5 and phospho-Cdc37 (S13) (Abcam). Secondary antibodies raised against mouse and rabbit (Cell Signaling) were used (See Key Resources Table).

Hsp90 = test: Time course with Hsp90 inhibitor SNX-2112, protein levels by immunoblot; assay type: cell-based, human; conditions: HEK293 cells, 2 μM
Description: Since a vast majority of PP5 substrates are also clients of the molecular chaperone Hsp90, we asked whether RIPK1 and FADD are clients of this chaperone. We therefore performed a time course assay using the Hsp90 inhibitor SNX-2112 (2 μM) in HEK293 cells. […] To further understand the relationship between FADD and Hsp90, we immunoprecipitated endogenous FADD from 786-O cells and examined the co-IP of Hsp90 (FIG. 4G).
as §1

PP5-FLAG = target: T1, PP5-FLAG (Homo sapiens, UniProt P53041); test: Biotin-P5 and biotin-P13 pulldown from HEK293 lysate; assay type: binding; conditions: for binding of PP5-FLAG to biotinylated compound (streptavidin pulldown): 0.01-10 μM
T1 construct: expressed in transfected cells; host or cells: HEK293
T1 sequence (P53041 1-499): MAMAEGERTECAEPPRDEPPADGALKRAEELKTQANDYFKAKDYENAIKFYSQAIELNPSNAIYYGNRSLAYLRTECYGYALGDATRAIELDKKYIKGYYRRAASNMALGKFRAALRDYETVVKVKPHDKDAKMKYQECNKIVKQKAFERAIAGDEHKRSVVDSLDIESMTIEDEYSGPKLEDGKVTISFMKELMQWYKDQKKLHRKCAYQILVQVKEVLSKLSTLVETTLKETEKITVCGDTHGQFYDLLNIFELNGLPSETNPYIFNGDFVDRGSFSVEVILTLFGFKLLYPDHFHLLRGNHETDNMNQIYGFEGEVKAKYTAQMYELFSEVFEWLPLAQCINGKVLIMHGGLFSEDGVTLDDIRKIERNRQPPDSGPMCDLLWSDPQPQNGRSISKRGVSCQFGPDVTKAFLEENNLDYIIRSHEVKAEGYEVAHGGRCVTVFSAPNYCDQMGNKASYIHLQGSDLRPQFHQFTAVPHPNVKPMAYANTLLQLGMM
Description: (§2) Biotin-P5 and biotin-P13 Pulldown: HEK293 cells were transiently transfected with PP5-FLAG or active site point mutants and protein lysate extracted. Lysate was incubated with 0.01-10 μM biotin-P5 or biotin P-13 as indicated at 4° C. for 1 hr then added to streptavidin-conjugated agarose and incubated at 4° C. for 1 hr. Following three washes with fresh extraction buffer bound proteins were eluted in 5× Laemmli buffer and analyzed by Western blot. […] Samples were run by SDS PAGE, transferred to nitrocellulose membrane, and analyzed by Western blot.

PP2A = test: Biotin-P5 / biotin-P13 pulldown in 786-O lysate, co-pulldown of PP2A; assay type: binding, human; conditions: cell lysate, 1 μM
[1] = target: T2, PP5-FLAG active site point mutants (Homo sapiens, UniProt P53041, R400A); test: Biotin-P13 pulldown of PP5 active site point mutants; assay type: binding; conditions: HEK293 lysate
T2 construct: expressed in transfected cells; host or cells: HEK293
T2 sequence (P53041 2-499 R400A): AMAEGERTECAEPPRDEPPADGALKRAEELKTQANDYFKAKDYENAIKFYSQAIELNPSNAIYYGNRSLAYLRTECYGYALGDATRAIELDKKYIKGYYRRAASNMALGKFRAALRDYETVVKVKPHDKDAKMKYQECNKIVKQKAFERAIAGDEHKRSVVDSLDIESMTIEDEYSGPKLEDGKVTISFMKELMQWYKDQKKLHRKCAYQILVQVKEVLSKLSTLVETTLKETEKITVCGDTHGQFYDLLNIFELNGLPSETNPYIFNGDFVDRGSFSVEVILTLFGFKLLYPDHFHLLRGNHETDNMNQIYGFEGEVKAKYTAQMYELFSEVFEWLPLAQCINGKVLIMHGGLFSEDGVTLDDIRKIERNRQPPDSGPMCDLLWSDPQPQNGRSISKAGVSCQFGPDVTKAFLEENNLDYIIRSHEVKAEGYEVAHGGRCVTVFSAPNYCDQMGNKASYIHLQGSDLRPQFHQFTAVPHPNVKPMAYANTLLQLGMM
Description: (§3) We then mutated docking site residues in the active site of PP5 to obtain further insight into the mechanism of P13 binding to PP5. […] These mutants were transiently expressed in HEK293 cells, and then the protein lysates were challenged with different amounts of biotin-P13 (FIG. 1G).
as §2

[2] = system: PP5-FLAG active site point mutants; test: as above; assay type: binding, human; conditions: HEK293 lysate
Description: as §3, §2

SMILES: Cc1noc(C)c1S(=O)(=O)N(CCCC#N)c1ccc(Oc2ccccc2)cc1 [Compound P075, 4-[(3,5-Dimethyl-4-isoxazolylsulfonyl)(p-phenoxyphenyl)amino]butyronitrile]
- induction of apoptosis (cleaved PARP, cleaved caspase 8) (786-O cells; 10 μM, 24 hrs): had the ability to induce apoptosis

SMILES: CC1(C)CC(=O)c2c(C(F)(F)F)nn(-c3ccc(C(N)=O)c(N[C@H]4CC[C@H](O)CC4)c3)c2C1 [SNX-2112]
- RIPK1 protein levels (Hsp90; 16 hr): decreased RIPK1 protein levels
- FADD protein levels (Hsp90; throughout time course): did not observe a decrease in FADD levels
- Hsp90 clients Tsc2, Akt and phos-Ser473-Akt protein levels (Hsp90; time course): destabilized and degraded

- binding of PP5-FLAG to biotinylated compound (streptavidin pulldown) (PP5-FLAG): binds
- binding to PP2A (PP2A): did not bind
SMILES: Cc1noc(C)c1S(=O)(=O)Nc1cccc(C(=O)N2CCN(C(=O)CCC[C@@H]3SC[C@@H]4NC(=O)N[C@@H]43)CC2)c1 [biotin-P5, N-[3-(4-(4-[(3aS,4S,6aR)-2-Oxo-hexahydro-1H-thieno[3,4-d]imidazol-4-yl]butanoyl)piperazine-1-carbonyl)phenyl]-3,5-dimethyl-1,2-oxazole-4-sulfonamide]

- binding to PP5-FLAG compared to biotin-P5 (PP5-FLAG; 10 μM): bound more
- binding of PP5-FLAG to biotinylated compound (streptavidin pulldown) (PP5-FLAG): binds
- binding of R400A PP5 mutant compared to wild-type PP5 [1]: reduced binding
- binding of H304Q, M309C and W386F PP5 mutants [2]: unable to bind
- binding of R275A and Y451F PP5 mutants compared to wild-type PP5 [2]: increased binding
- binding to PP2A (PP2A): did not bind
SMILES: Cc1ccc(N(CCCNC(=O)CCC[C@@H]2SC[C@@H]3NC(=O)N[C@@H]32)S(=O)(=O)c2c(C)noc2C)cc1C [biotin-P13, 4-[(3aS,4S,6aR)-2-Oxo-hexahydro-1H-thieno[3,4-d]imidazol-4-yl]-N-(3-[N-(3,4-dimethylphenyl)3,5-dimethyl-1,2-oxazole-4-sulfonamido]propyl}butanamide]

SMILES: COC(=O)C[C@H](NC(=O)[C@H](C)NC(=O)[C@@H](NC(=O)OCc1ccccc1)C(C)C)C(=O)CF [z-VAD-fmk, reference compound] (Cbz-Val-Ala-Asp(OMe)-CH2F)
- effect on IC261-induced apoptosis (786-O cells; 10 μM for 1 hr, then IC261 for 16 hrs): reversed this effect
